Results reported in patent publication US12295970B2, “Imidazoquinoline compounds and prodrugs thereof” (UNIVERSITY OF KANSAS, priority 2019, dated 2025).

What was measured:
Format in all cases: cell-based
[1] = target: T1, hTLR7 (Homo sapiens, UniProt Q9NYK1); experiment: SEAP reporter assay for hTLR-7 activity (HEK-Blue hTLR7 cells); conditions: for EC50: ± SD, hTLR7 transfected HEK-Blue cells, Null subtracted, three independent measurements, 12 hours, read-out: EC50 TLR7
T1 construct: host or cells: HEK293 (HEK-Blue hTLR7)
T1 sequence (Q9NYK1 27-1049): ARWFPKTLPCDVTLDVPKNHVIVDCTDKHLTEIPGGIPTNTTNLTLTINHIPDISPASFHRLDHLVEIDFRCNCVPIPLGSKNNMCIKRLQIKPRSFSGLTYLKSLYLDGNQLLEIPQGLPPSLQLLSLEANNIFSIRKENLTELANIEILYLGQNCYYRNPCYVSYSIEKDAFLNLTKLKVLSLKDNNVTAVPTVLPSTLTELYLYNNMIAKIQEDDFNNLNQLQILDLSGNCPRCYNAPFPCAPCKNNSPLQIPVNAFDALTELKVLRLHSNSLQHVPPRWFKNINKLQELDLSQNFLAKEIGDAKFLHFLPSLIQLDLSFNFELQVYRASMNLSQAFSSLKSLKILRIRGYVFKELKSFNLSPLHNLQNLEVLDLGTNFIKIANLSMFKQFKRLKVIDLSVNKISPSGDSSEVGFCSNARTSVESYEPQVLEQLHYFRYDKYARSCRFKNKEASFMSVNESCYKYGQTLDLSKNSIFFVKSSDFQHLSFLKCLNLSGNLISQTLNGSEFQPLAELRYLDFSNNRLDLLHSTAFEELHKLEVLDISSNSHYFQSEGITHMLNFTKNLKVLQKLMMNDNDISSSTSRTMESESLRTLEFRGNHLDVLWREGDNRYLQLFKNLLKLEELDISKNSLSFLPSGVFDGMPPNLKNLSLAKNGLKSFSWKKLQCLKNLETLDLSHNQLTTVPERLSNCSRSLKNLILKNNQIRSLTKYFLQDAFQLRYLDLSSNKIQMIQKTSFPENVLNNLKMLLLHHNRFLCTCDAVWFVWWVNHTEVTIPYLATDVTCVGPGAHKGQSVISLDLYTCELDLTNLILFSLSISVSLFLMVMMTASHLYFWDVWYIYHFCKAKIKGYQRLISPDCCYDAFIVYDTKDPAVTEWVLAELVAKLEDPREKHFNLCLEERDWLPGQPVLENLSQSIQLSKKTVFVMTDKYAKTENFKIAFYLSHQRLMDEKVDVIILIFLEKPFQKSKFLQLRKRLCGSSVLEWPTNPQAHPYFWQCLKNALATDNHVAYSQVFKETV
Method: (§1) TLR activation induces NF-κB production and subsequent SEAP secretion, which is measured using HEK-Detection media (InvivoGen) containing a colorimetric substrate for SEAP (UV-Vis, 637 nm).
(§2) The experiments followed manufacturer protocol as follows: SEAP levels were measured via absorbance at 637 nm using HEK-Blue Detection cell culture medium (InvivoGen), which contains a SEAP-specific colorimetric substrate. Compound stock solutions were first diluted in sterile DMSO at a concentration of 10 mM. Lower concentrations were prepared by serial dilution of the initial 10 mM stock samples into sterile DMSO and these solutions (22 μL) were subsequently diluted into sterile H2O (198 μL) using a BioTek Precision XS pipetting system. HEK-Blue hTLR7, HEK-Blue hTLR8, Null 1−k, and Null 1 cell suspensions in sterile HEK-Blue Detection medium were prepared at a density of 220,000 cells per mL. Clear bottom, 96-well tissue culture treated plates (Corning) were seeded with hTLR7 and Null 1−k or hTLR8 and Null 1 cell suspensions (180 μL/well), after which 20 μL of the various sample concentrations in 10% v/v DMSO/H2O were added (20 μL) in quadruplicate wells to yield the desired testing concentration in 1% v/v DMSO cell suspension. Plates were incubated at 37° C. and 5% CO2 in the dark. Absorbance measurements were taken at 637 nm at 12 hours, 4 replicates per concentration point, per cell line (hTLR7, hTLR8, Null 1−k, Null 1). Three independent measurements on different days were performed for each analog.
(§3) Corresponding well absorbance values for each concentration tested were averaged with respect to days tested, and the average relative NF-κB induction (UV-Vis, 637 nm) of the null cell lines (Null 1-k or Null 1) were subtracted from the respective average TLR expressing cell line (hTLR7 or hTLR8) absorbance averages. […] The three independent, normalized averages for each analog were then pooled, and the data was fit using the Hill-Slope model (GraphPad Prism v7.0) using the non-linear fit from the [Agonist] vs. response—Variable Slope (four parameters) with a hill slope constrained to less than 3.

[2] = target: T2, hTLR8 (Homo sapiens, UniProt Q9NR97); experiment: SEAP reporter assay for hTLR-8 activity (HEK-Blue hTLR8 cells); conditions: for EC50: ± SD, hTLR8 transfected HEK-Blue cells, Null subtracted, three independent measurements, 12 hours, >100 = no activity observed at 100 μM, read-out: EC50 TLR8
T2 construct: host or cells: HEK293 (HEK-Blue hTLR8)
T2 sequence (Q9NR97 27-1041): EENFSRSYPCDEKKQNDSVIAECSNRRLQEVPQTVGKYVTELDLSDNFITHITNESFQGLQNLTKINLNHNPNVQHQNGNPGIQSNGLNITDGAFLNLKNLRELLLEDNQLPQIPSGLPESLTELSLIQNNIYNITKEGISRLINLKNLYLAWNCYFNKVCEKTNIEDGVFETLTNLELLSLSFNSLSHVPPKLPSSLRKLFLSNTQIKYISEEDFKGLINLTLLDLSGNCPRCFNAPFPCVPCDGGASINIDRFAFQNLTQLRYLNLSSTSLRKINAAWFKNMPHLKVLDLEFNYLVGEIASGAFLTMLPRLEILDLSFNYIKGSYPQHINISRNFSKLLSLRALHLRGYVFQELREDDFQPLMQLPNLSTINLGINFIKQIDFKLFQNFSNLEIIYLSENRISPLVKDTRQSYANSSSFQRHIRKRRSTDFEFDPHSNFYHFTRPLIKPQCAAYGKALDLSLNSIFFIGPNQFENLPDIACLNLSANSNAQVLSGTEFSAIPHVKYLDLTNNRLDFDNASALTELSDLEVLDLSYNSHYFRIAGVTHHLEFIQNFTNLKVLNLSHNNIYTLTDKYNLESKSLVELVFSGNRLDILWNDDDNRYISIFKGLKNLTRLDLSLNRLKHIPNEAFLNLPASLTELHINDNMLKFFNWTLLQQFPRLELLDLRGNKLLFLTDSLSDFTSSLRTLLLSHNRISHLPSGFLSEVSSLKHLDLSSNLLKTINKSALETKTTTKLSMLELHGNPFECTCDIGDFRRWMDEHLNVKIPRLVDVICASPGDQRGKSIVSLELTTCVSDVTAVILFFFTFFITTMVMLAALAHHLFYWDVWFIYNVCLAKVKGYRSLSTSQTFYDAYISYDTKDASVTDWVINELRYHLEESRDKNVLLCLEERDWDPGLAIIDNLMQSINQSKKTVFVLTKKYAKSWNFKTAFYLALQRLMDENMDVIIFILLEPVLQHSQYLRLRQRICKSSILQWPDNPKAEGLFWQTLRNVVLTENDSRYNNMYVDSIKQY
Method: as §1, §2, §3

[3] = test system: canine peripheral blood mononuclear cells (cPBMCs); experiment: Cytokine production in canine PBMCs by ELISA (Example 2); conditions: for Cytokine IFNg / Cytokine IL-2 / Cytokine IL-6 / Cytokine IL-10 / Cytokine IL-12 / Cytokine TNFa: ± SD, 29 hours, ELISA, triplicate
Method: The imidazoquinolines were further screened for cytokine production in canine peripheral blood mononuclear cells (cPBMCs). […] TNFα and IL-12 were chosen as they are typically seen in a Th-1 cytokine response.
Peripheral blood from a healthy canine donor was obtained with appropriate informed consent of the owner and under approved institutional guidelines. Blood (8 mL per tube) was drawn via sterile venipuncture into a BD Vacutainer cell preparation tube containing sodium heparin (BD Biosciences). PBMCs were isolated within one hour following procurement by density gradient centrifugation according to the manufacturer protocol and resuspended to 2.22×10^6 cells/mL in sterile RPMI 1640 medium with L-glutamine (Gibco) supplemented with 100 U/mL penicillin, 100 μg/mL streptomycin (Corning) and 10% (v/v) heat-inactivated Fetalgro (RMBIO). Corning 3917, 96-well tissue culture treated plates were seeded with the PBMC suspension (180 μL/well), 20 μL of the serially diluted TLR agonists were added in triplicate to yield the desired concentrations in a 1% (v/v) DMSO cell suspension. Cells were incubated at 37° C. in 5% CO2 for 9 hours (FIGS. 3A-3D) or 29 hours (Table 2) after which supernatants were removed and frozen at −80° C. Cytokine secretion levels were measured by ELISA (Duoset, R&D Systems) according to the manufacturer protocol. Samples and standards (n=3) were thawed and plated onto a Maxisorp flat-bottom, 384-well plate (Thermo Scientific) using a BioTek Precision XS pipetting system. Cytokine concentrations were determined by a hyperbolic or four-parameter logistic non-linear regression of the recombinant standards and subsequent interpolation using Graphpad Prism 7.0.

SMILES	agonist for TLR7 receptor (in words) [1]	EC50 [1] [µM]	agonist for TLR8 receptor (in words) [2]	EC50 [2] [µM]	Cytokine IFNg ([3]; 20 μM) [pg/mL]	Cytokine IL-2 ([3]; 20 μM) [pg/mL]	Cytokine IL-6 ([3]; 20 μM) [pg/mL]	Cytokine IL-10 ([3]; 20 μM) [pg/mL]	Cytokine IL-12 ([3]; 20 μM) [pg/mL]	Cytokine TNFa ([3]; 20 μM)	cytokine induction (in words) [3]	IL-12 response (in words) ([3]; 20 μM)	TNFα response (in words) ([3]; 20 μM)
CC(C)Cn1cnc2c(N)nc3ccccc3c21 [Compound 1, imiquimod, reference compound]	agonists	6.8 ± 0.8	agonists	25 ± 3	–	–	–	–	–	–	–	–	–
CCCCc1nc2c(N)nc3cc(OC)ccc3c2n1CC(C)C [Compound 4, 4-Amino-2-butyl-7-methoxy-1-(2-methylpropyl)-1H-imidazo[4,5-c]quinoline]	–	0.11 ± 0.01	–	> 100	0	30 ± 29	500 ± 140	37 ± 13	746 ± 130	49 ± 9 pg/mL	–	–	–
CCCCc1nc2c(N)nc3cc(OC)ccc3c2n1CC(C)(C)O [Compound 5, 4-Amino-2-butyl-1-(2-hydroxy-2-methylpropyl)-7-methoxy-1H-imidazo[4,5-c]quinoline]	–	0.081 ± 0.009	–	1.7 ± 0.3	14.5 ± 6	82 ± 56	290 ± 63	14 ± 2	2000 ± 160	64 ± 12 pg/mL	–	–	–
CCCCc1nc2c(N)nc3cc(Cl)ccc3c2n1CC(C)C [Compound 6, 4-Amino-2-butyl-7-chloro-1-(2-methylpropyl)-1H-imidazo[4,5-c]quinoline]	–	0.3 ± 0.02	–	> 100	7 ± 1	63 ± 44	240 ± 67	14 ± 4	760 ± 50	91 ± 20 pg/mL	–	–	–
CCOCc1nc2c(N)nc3cc(Cl)ccc3c2n1CC(C)C [Compound 7, 4-Amino-7-chloro-2-(ethoxymethyl)-1-(2-methylpropyl)-1H-imidazo[4,5-c]quinoline]	–	0.91 ± 0.09	–	> 100	5 ± 5	50 ± 22	280 ± 81	20 ± 1	781 ± 40	114 ± 25 pg/mL	–	–	–
CCCCc1nc2c(N)nc3cc(Cl)ccc3c2n1CC(C)(C)O [Compound 8, 4-Amino-2-butyl-7-chloro-1-(2-hydroxy-2-methylpropyl)-1H-imidazo[4,5-c]quinoline]	–	0.084 ± 0.007	–	1.5 ± 0.2	13 ± 10	55 ± 30	230 ± 44	7 ± 6	1700 ± 330	22 ± 4 pg/mL	–	–	–
CCOCc1nc2c(N)nc3cc(Cl)ccc3c2n1CC(C)(C)O [Compound 9, 4-Amino-7-chloro-2-(ethoxymethyl)-1-(2-hydroxy-2-methylpropyl)-1H-imidazo[4,5-c]quinoline]	–	0.63 ± 0.03	–	4.9 ± 0.6	16 ± 2	76 ± 59	320 ± 76	12 ± 3	1900 ± 130	70 ± 8 pg/mL	–	–	–
CCCCc1nc2c(N)nc3cc(C#N)ccc3c2n1CC(C)C [Compound 10, 4-Amino-2-butyl-7-carbonitrile-1-(2-methylpropyl)-1H-imidazo[4,5-c]quinoline]	–	0.99 ± 0.4	–	> 100	13 ± 5	60 ± 41	350 ± 95	37 ± 10	920 ± 170	10 ± 1 pg/mL	–	–	–
CCCCc1nc2c(N)nc3cc(O)ccc3c2n1CC(C)C [Compound 14, 4-Amino-2-butyl-7-hydroxy-1-(2-methylpropyl)-1H-imidazo[4,5-c]quinoline]	–	0.073 ± 0.005	–	–	9 ± 8	79 ± 19	330 ± 92	17 ± 3	102 ± 65	270 ± 70 - pg/mL	barely potentiates any cytokine induction	one of the lowest IL-12 responses	one of the highest TNFα responses
